≈ marks a conversion by molar mass, not a printed value. Read-outs that look alike come from different tables or passages of the source.
Experiment: Measurement of the solubilization of active ingredients by amphiphiles
Assay type: physicochemical
Details: thermodynamic from solid
From the text: After a rest time of one hour, excess (i.e. unsolubilized) active ingredient was removed by centrifuging. The resulting clear or opaque solution was subsequently analyzed for its active ingredient content by means of UV spectroscopy. The wavelengths of the UV spectroscopy measurement are compiled in table 1.

[1] = distilled water without polymer, room temperature, stirred 24 h, UV spectroscopy, read-out: Solubility of active ingredient, no polymer (noninventive)

NC(=O)N1c2ccccc2C=Cc2ccccc21 [Carbamazepine]
solubility at 24 h [1]: 0.14 mg/mL (≈ 593 µM)

N#Cc1nn(-c2c(Cl)cc(C(F)(F)F)cc2Cl)c(N)c1[S+]([O-])C(F)(F)F (stereo not shown) [Fipronil]
solubility at 24 h (water): 0.003 mg/mL (≈ 6.86 µM)

CN1C(C(=O)Nc2ccccn2)=C(O)c2ccccc2S1(=O)=O [Piroxicam]
solubility at 24 h [1]: 0.021 mg/mL (≈ 63.4 µM)

COC(=O)N(OC)c1ccccc1COc1ccn(-c2ccc(Cl)cc2)n1 [Pyraclostrobin]
solubility at 24 h [1]: 0.0225 mg/mL (≈ 58 µM)

— patent US8841382B2, “Hyperbranched polyethers/dendrimers for solubilzation of sparingly soluble active ingredients” (BASF SE, priority 2010, dated 2014)
